The values below come from patent US5100797A, “Fucosidase inhibitors” (priority 1989, dated 1992).

One data set has as its system α-glucosidase. As to conditions: Kite et al. 1988; cited from earlier work.
In data set [1] the test system is mammalian α-L-fucosidases. As to conditions: background statement; cited from earlier work.
Data set [2] addresses T1, human liver α-L-fucosidase (Homo sapiens, UniProt P04066).
T1 construct: The resultant supernatant was used as the source of human glycosidases; from tissue; host or cells: post-mortem human liver, 37,000 g supernatant of homogenate
T1 sequence (P04066 32-466): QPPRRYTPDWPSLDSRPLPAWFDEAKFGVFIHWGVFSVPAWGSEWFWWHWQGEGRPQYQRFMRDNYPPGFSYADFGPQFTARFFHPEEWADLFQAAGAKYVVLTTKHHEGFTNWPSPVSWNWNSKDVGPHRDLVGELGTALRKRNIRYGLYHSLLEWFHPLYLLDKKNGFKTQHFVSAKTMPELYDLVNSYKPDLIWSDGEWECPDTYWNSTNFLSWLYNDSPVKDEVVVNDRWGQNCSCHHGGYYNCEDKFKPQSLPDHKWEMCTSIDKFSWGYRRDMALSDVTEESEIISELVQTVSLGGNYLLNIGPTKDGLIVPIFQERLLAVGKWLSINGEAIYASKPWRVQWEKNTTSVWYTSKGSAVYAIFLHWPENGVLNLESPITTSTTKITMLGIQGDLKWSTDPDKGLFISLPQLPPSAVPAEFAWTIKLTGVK
Nature of the data set: Inhibition of human liver α-L-fucosidase (4-umbelliferyl glycoside substrate, Dixon plot). As to conditions: for fucosidase inhibition, in words: human liver α-L-fucosidase; for Ki: human liver extract, 4-umbelliferyl substrate 0.5 mM, Dixon graphical procedure. The format is biochemical. Here is the method:
Post-mortem human liver, which had been stored at -20° C. until required was homogenized in deionized water (50%, w/v) in a Potter-Elvehjem homogenizer and then centrifuged at 37,000 g for 30 min in an MSE 18 centrifuge. The resultant supernatant was used as the source of human glycosidases.
The specificity of the inhibitors was determined by assaying the glycosidases in the presence of and absence of a 1 mM solution of each compound. […] The Lineweaver-Burk graphical procedure and secondary plots of the slope against inhibitor concentration were used to determine the nature of inhibition and the values of Ki for these activities.

Another data set concerns the target T2, β-D-galactosidase (Homo sapiens, UniProt P16278).
T2 construct: 4-umbelliferyl glycoside substrate
T2 sequence (P16278 29-677): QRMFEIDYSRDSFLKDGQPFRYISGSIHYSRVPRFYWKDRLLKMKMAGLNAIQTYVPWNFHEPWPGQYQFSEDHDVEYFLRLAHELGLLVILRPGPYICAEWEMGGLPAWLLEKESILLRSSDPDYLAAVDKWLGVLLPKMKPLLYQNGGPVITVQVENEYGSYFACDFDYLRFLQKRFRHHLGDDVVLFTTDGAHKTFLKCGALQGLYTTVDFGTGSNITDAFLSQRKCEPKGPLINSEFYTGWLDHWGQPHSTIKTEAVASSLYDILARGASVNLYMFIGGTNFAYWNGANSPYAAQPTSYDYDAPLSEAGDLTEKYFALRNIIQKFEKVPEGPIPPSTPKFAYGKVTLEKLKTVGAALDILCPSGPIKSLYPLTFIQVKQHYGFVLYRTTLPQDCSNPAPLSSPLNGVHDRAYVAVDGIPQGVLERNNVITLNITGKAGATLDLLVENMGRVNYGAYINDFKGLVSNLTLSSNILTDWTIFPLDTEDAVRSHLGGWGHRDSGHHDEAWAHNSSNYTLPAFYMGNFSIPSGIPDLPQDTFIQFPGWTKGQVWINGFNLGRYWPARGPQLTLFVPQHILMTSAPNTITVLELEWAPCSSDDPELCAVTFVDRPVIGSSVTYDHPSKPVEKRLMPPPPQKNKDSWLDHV
Nature of the data set: Glycosidase specificity in human liver extract: β-D-galactosidase. It is filed as biochemical. As to conditions: read-out: Other specificities (% inhibition at 1 mM): β-D-galactosidase, 1 mM compound. As to the method: (§1) Post-mortem human liver, which had been stored at -20° C. until required was homogenized in deionized water (50%, w/v) in a Potter-Elvehjem homogenizer and then centrifuged at 37,000 g for 30 min in an MSE 18 centrifuge. The resultant supernatant was used as the source of human glycosidases. A lyophilized extract of liver from Charonia lampas was obtained from Seikagaku Kogyo Co., Japan for the isolation of α-L-fucosidase by the published procedure of Iijima and Egami, J. Biochem. 70, 75-78 (1971).
(§2) The glycosidase activities in an extract of human liver were assayed by using the appropriate fluorigenic 4-umbelliferyl glycoside substrate (Koch-Light, Haverhill, Suffolk, U.K.) with a concentration of 0.5 mM at the optimal pH for each enzyme [Burditt et al., Biochem. J. 189, 467-473 (1980)]. The specificity of the inhibitors was determined by assaying the glycosidases in the presence of and absence of a 1 mM solution of each compound. The nature of the inhibition of human α-L-fucosidase, the value of Ki determined by using the Dixon graphical procedure and the effect of pH on the inhibition were investigated as described previously by Al Daher et al., Biochem. J. 258, 613-615 (1989). […]

The target of data set [3] is Charonia lampas α-L-fucosidase. Nature of the data set: Inhibition of Charonia lampas α-L-fucosidase (Lineweaver-Burk). It is filed as biochemical. As to conditions: para-nitrophenyl-α-L-fucopyranoside; sodium acetate buffer pH 4.5, 0.15 M NaCl; read-out: Ki (M) C. lampas α-L-fucosidase. Here is the method:
as §1
(§3) The glycosidase activities in an extract of human liver were assayed by using the appropriate fluorigenic 4-umbelliferyl glycoside substrate (Koch-Light, Haverhill, Suffolk, U.K.) with a concentration of 0.5 mM at the optimal pH for each enzyme [Burditt et al., Biochem. J. 189, 467-473 (1980)]. The specificity of the inhibitors was determined by assaying the glycosidases in the presence of and absence of a 1 mM solution of each compound. The nature of the inhibition of human α-L-fucosidase, the value of Ki determined by using the Dixon graphical procedure and the effect of pH on the inhibition were investigated as described previously by Al Daher et al., Biochem. J. 258, 613-615 (1989). Bovine epididymal and Charonia lampas α-L-fucosidase were assayed using para-nitrophenyl-α-L-fucopyranoside as substrate in phosphate-citrate buffer (McIlvaine), pH 6.0, and 0.005 M-sodium acetate buffer, pH 4.5 containing 0.15 M NaCl, respectively. The Lineweaver-Burk graphical procedure and secondary plots of the slope against inhibitor concentration were used to determine the nature of inhibition and the values of Ki for these activities.

For data set [4], the target named is T3, Bovine epididymal α-L-fucosidase (Bos taurus, UniProt Q2KIM0).
T3 construct: Bovine epididymal and Charonia lampas α-L-fucosidase were assayed; from tissue; host or cells: bovine epididymis
T3 sequence (Q2KIM0 23-468): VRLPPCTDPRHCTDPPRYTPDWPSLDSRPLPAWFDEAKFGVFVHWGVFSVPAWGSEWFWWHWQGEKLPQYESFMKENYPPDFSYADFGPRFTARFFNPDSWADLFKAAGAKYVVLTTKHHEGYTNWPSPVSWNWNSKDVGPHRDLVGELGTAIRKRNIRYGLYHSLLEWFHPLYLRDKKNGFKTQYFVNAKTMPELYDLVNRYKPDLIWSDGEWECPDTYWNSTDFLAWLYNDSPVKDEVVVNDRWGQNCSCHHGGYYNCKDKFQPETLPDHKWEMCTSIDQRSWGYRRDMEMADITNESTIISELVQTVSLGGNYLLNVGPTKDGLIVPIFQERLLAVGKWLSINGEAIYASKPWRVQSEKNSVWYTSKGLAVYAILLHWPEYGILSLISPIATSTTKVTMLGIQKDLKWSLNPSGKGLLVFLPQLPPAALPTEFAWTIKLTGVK
Nature of the data set: Inhibition of bovine epididymal α-L-fucosidase (Lineweaver-Burk). The format is biochemical. As to conditions: para-nitrophenyl-α-L-fucopyranoside; phosphate-citrate buffer pH 6.0; read-out: Ki (M) Bovine epididymis α-L-fucosidase. As to the method: as §3

A further data set is described as follows: pKa of inhibitors. The format is physicochemical.
The subject of data set [5] is N-acetyl-β-D-hexosaminidase. Nature of the data set: Glycosidase specificity in human liver extract: N-acetyl-β-D-hexosaminidase. As to conditions: 1 mM compound. The format is biochemical. Here is the method: as §1, §3
For a further data set, the target named is T4, α-D-mannosidase (Homo sapiens, UniProt O00754).
T4 construct: The resultant supernatant was used as the source of human glycosidases; from tissue; host or cells: post-mortem human liver, 37,000 g supernatant of homogenate
T4 sequence (O00754 50-601 limits assumed): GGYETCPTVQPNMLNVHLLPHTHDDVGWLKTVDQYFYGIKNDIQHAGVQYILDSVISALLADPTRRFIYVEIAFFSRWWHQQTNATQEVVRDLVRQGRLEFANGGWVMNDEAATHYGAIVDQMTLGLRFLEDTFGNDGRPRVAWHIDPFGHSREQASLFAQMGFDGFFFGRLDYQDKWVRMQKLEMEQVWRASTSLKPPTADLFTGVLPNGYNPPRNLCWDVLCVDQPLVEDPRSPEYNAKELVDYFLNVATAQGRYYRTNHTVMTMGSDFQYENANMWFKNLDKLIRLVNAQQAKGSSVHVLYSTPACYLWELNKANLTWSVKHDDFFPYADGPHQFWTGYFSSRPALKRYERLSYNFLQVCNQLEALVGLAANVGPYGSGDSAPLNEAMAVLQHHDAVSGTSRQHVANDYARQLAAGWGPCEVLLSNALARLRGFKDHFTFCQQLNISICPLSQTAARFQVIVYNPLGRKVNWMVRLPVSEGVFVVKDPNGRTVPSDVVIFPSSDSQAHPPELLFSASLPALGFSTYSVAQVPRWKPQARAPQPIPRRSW
T4 sequence (O00754 602-882 limits assumed): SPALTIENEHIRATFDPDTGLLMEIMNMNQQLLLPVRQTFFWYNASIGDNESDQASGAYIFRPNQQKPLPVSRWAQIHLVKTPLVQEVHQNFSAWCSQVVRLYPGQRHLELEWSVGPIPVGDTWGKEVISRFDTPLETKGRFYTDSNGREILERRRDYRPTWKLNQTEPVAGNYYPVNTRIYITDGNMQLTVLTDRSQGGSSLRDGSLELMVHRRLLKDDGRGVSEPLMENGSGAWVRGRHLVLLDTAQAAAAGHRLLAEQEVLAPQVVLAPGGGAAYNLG
T4 sequence (O00754 883-1011 limits assumed): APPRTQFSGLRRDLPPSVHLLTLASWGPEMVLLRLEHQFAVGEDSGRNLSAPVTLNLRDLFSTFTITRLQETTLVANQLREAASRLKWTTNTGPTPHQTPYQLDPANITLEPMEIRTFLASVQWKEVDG
Nature of the data set: Glycosidase specificity in human liver extract: α-D-mannosidase. It is filed as biochemical. As to the method: as §1, §2

On to `OC[C@H]1NC[C@H](O)[C@@H](O)[C@@H]1O` [Compound 1, deoxynojirimycin], for which the “inhibition of α-glucosidase activity, in words” value with α-glucosidase is on record as “potent inhibitors of α-glucosidase activity”.
Consider `OC[C@H]1N[C@H](CO)[C@@H](O)[C@H](O)[C@H]1O` [Compound 2, α-homonojirimycin], for which the “inhibition of α-glucosidase activity, in words” value in the data set with α-glucosidase is “potent inhibitors of α-glucosidase activity”.
Regarding `C[C@@H]1NC[C@@H](O)[C@H](O)[C@@H]1O` [Compound 4, 1,5-Dideoxy-1,5-imino-L-fucitol], in data set [1], the “inhibition of mammalian α-L-fucosidases, in words” value was “very powerful and highly specific inhibitor”.
As for `C[C@@H]1N[C@H](CO)[C@@H](O)[C@H](O)[C@@H]1O` [Compound 7, 2,6-Imino-2,6,7-trideoxy-L-glycero-D-mannohepitol], in data set [2], the “fucosidase inhibition, in words” value is “did not diminish the inhibition of α-L-fucosidase”. Also, the inhibition – broadly, the relative decrease from the control value, in per cent – at 1000 µM at β-D-galactosidase was determined as 27%. Moreover, the results for the Ki in data set [3] and in [4] were 1.4e-07 M and 2e-08 M, respectively. Moreover, the pKa (commonly the negative logarithm of the acid dissociation constant) in the data set “pKa of inhibitors” came out at 7.1.
Regarding `CC[C@@H]1N[C@H](CO)[C@@H](O)[C@H](O)[C@@H]1O` [Compound 8, β-1-C-Ethyl Deoxymannojirimycin], the Ki (commonly a measure of affinity in units of concentration, obtained from inhibition or displacement) in data set [2] came out at 0.07 µM; in data set [3] it was 5.8e-07 M; in data set [4], 2e-06 M. Besides, in data set [2], the “fucosidase inhibition, in words” value was “very powerful fucosidase inhibitor”. Moreover, in [5], the “Other specificities (% inhibition at 1 mM): N-acetyl-β-D-hexosaminidase” value was determined as 36%. This molecule also displayed a pKa in the data set “pKa of inhibitors” of 7.8.
With `OC[C@H]1N[C@@H](c2ccccc2)[C@@H](O)[C@@H](O)[C@@H]1O` [Compound 9, β-1-C-Phenyl Deoxymannojirimycin], the figures for the Ki in data set [2], in data set [3] and in [4] were 1 µM, 0.002 M and 5.5e-06 M, respectively. Also, the “fucosidase inhibition, in words” value in data set [2] is recorded as “more potent fucosidase inhibitor than is DMJ (10)”. The “Other specificities (% inhibition at 1 mM): N-acetyl-β-D-hexosaminidase” value in [5] is on record as 50%. Moreover, the pKa in the data set “pKa of inhibitors” amounted to 6.3.
`OC[C@H]1NC[C@@H](O)[C@@H](O)[C@@H]1O` [Compound 10, deoxymannojirimycin]: at α-D-mannosidase, the “inhibition of mannosidase activity, in words” value was “showed any inhibition of mannosidase activity”. Also, at α-D-mannosidase (read-out: Other specificities (% inhibition at 1 mM): α-D-mannosidase, human liver extract, 1 mM compound), the inhibition at 1000 µM worked out at 64%. Also, in the data set “pKa of inhibitors”, the pKa amounted to 7.2.
Consider `C[C@H]1[C@@H](O)[C@@H](O)[C@H](O)CN1C` [MeFDJ, reference compound], for which the affinity in [2] corresponds to a Ki of 0.05 µM. For the same molecule, the “Other specificities (% inhibition at 1 mM): N-acetyl-β-D-hexosaminidase” value in data set [5] stood at 59%. In “pKa of inhibitors”, the pKa stood at 7.8.
